The values below come from patent US20180193361A1, “GUT ANTI-INFLAMMATORY AGENTS FOR REGULATION OF HIGH BLOOD GLUCOSE LEVELS” (UNIVERSITY HEALTH NETWORK, priority 2015, published 2018).

For orientation: Kp means tissue or fluid exposure divided by exposure in the circulation.

In data set [1] the test system is gut bacteria. Put plainly: Gut microbiome sequencing. Format: in vivo. To be noted: HFD 5-ASA-fed mice. On the procedure: We amplified the V4 hypervariable region of the 16S rRNA gene using a universal forward sequencing primer and a uniquely barcoded reverse sequencing primer to allow for multiplexing (Caporaso et al., 2012). Primers contained an adapter sequence to bind the amplicons to the Illumina flow cell. PCR-based library construction was performed in triplicate 25 μl solutions containing 1×KAP[…] Robust HotStart ReadyMix, 600 nM each of primer, and 1 μl of DNA template. For every PCR reaction sterile dH2O was used as a negative control to ensure no contaminating DNA was present. PCR conditions were 95° C. for 3 min, followed by 18 cycles of 95° C. for 15 s, 58° C. for 15 s, 72° C. for 15 s and were completed at 72° C. for 5 min. All PCR reactions were run on a 1% agarose gel to visualize the amplification and approximate DNA quantity. Individual barcoded samples from the triplicates were pooled by approximately even concentrations to create the final library. The final library was purified using 0.8 volumes of Agencourt AMPure XP beads (Beckman Coulter, Indianapolis, Ind.) according to the manufacturer's protocol and quantified using the Qubit Fluorometer. The final library was prepared according to the MiSeq user guide, diluted to a concentration of 7 pM and combined with a 5% PhiX control. Sequencing was performed using the V2 (150 bp×2) chemistry and sequenced on the Illumina MiSeq (Illumina, San Diego, Calif.).

Data set [2] has as its system endotoxin, anti-LPS IgG. The experiment in a line: Endotoxin and anti-LPS IgG measurements. It counts as in vivo, mice. The note with it: HFD vs HFD 5-ASA, 14 weeks. From the text:
We measured endotoxin levels in the serum and adipose tissue using Pyrogene Recombinant C endotoxin detection fluorescence kit (Lonza Inc.). We measured mouse serum anti-LPS IgG antibody levels with a commercially available kit (Chrondrex Inc.).

Data set [3] relates to C57BL/6 mice on HFD with established metabolic disease. Put plainly: Treatment of established obesity-associated IR (switch to HFD 5-ASA after 8 weeks HFD). It counts as in vivo. To be noted: 8 weeks HFD then 8 weeks HFD 5-ASA (1500 mg/kg/day) vs HFD only. On the procedure: Mice. Mice were fed either NCD (15 kcal % fat) or HFD (Research Diets, 60 kcal % fat, irradiated) starting at 6 weeks of age. All studies were performed under the approval of Animal User Protocols by the Animal Care Committee at the University Health Network. Mice were maintained in a pathogen-free, temperature-controlled environment on a 12-hour light and dark cycle. All mice used in comparative studies were male, age-matched, and litter mates where possible. […] We confirmed T cell-specific floxing of the PPARγ gene in Lck-Cre+ PPARγfl/fl mice by qPCR with a minimum of at least 90% reduction in PPARγ expression. […] We measured body weights, GTTs, ITTs, serum insulin, and fat cell diameter as previously described (Winer et al., 2009a). All GTTs were performed with a 1.5 g/kg glucose i.p. injection unless indicated otherwise.

In data set [4] the test system is small bowel dendritic cells. The experiment in a line: DC-T cell co-culture, 5-ASA pre-treated small bowel dendritic cells with OT-II T cells. To be noted: DCs pre-treated with 0.1 or 1.0 mM 5-ASA 24 hours, OVA323-339 peptide, 48 hours. Format: cell-based, mice. On the procedure:
To measure the effect of IFNγ on tight-junction gene expression, we treated MODE-K cells with recombinant mouse IFNγ (Biolegend). We purified bulk dendritic cells and T cells from murine small bowels and spleens using a negative selection DC or T cell isolation kit (Stem Cell Technologies). We plated T cells at 5×10^5 cells/well with plate-bound anti-CD3/CD28 (1 μg/ml, Biolegend). […] We collected supernatants for cytokine measurements after 72 hour incubation. […] After 24 hours, we washed the cells with PBS and co-cultured them (1×10^4 cells/well) with OVA323-339 peptide and OT-II splenic or small bowel T cells (5×10^4 cells/well) for 48 hours. Supernatants were collected at 48 hours for cytokine measurement.

Data set [5] in a line: HPLC of 5-ASA in serum and tissues with internal 4-ASA standard. It counts as in vivo, mice. The note with it: mouse, colon and small bowel relative to serum, oral.
Protocol: We cut frozen tissues and homogenized them in 80% methanol (30 mg/mL) on ice. We spiked 100 μL aliquots with 4-ASA used as internal standard (200 ng), and 400 μL 80% methanol were added. For plasma, we thawed samples from −80° C. at room temperature. 75 μL plasma were spiked with 4-ASA used as internal standard (200 ng) and mixed with 300 μL of methanol for 5 minutes (vortex). Samples were centrifuged (20,000×g, 15 minutes, 4° C.). Supernatants were separated from the pellets and taken to dryness under nitrogen gas in the fumehood. We then reconstituted the dry residues in 200 μL of mobile phase, vortexed for 1 minute and centrifuged at 20,000×g for 15 minutes. The supernatants were transferred to autosampler vials fitted with inserts and sealed caps. Aliquots of the solution were injected into HPLC for analysis.
We performed high performance liquid chromatography using a Dionex Ultimate 3000 system equipped with a binary pump, a built-in autosampler, a photodiode array and a RF 2000 fluorescence detector. […] The analytes were monitored by fluorescence (excitation: 337 nm and emission: 432 nm) and by (UV235 nm). We analyzed the chromatograms produced using Chromeleon version 6.8 software.
In data set [6] the test system is VAT T cells and M1 macrophages. Put plainly: Flow cytometry of VAT immune cells, HFD or HFD 5-ASA. To be noted: HFD vs HFD 5-ASA 1500 mg/kg/day, 16 weeks. Format: in vivo, mice. As to the method: We isolated VAT-associated immune cells as previously described (Winer et al., 2009a).
We stained single cell suspensions for 30 min on ice with commercial antibodies. Flow cytometry antibodies including CD45.2 (104), CD3 (145-2C11), CD4 (GK1.5), CD8 (53-6.7), CD25 (PC61), γδTcR (GL3), Foxp3 (150D), IL-17 (TC11-18H10.1), IFNγ XMG1.2), α4β7 (DATK32), CCR9 (CW-1.2), CD11b (M1/70), F4/80 (BM8), CD11c (N418), CD206 (C068C2), Gr-1 (RB6-8C5), IL-7Rα (A7R34), B220 (RA3-6B2), Thy1.2 (30-H12), NKp46 (29A1.4), and Sca-1 (D7) were purchased from Biolegend. Intracellular staining was performed using a Foxp3 staining buffer kit (eBioscience). We acquired data on a Fortessa flow cytometer (BD Biosciences) and analyzed it with FlowJo software (Tree Star). We gated ILCs as described (Kirchberger et al., 2013).
For orientation: In flow cytometry, cells or beads pass a laser one at a time.

For data set [7], the system named is NCD-fed C57BL/6 mice. Put plainly: Metabolic studies, NCD or NCD 5-ASA. It counts as in vivo. To be noted: NCD vs NCD 5-ASA 1500 mg/kg/day, 12 weeks.
Protocol: Mice. Mice were fed either NCD (15 kcal % fat) or HFD (Research Diets, 60 kcal % fat, irradiated) starting at 6 weeks of age. […] Mice were maintained in a pathogen-free, temperature-controlled environment on a 12-hour light and dark cycle. All mice used in comparative studies were male, age-matched, and litter mates where possible. […] We measured body weights, GTTs, ITTs, serum insulin, and fat cell diameter as previously described (Winer et al., 2009a). All GTTs were performed with a 1.5 g/kg glucose i.p. injection unless indicated otherwise.
Data set [8] deals with Beta7null mice. Put plainly: Metabolic studies, Beta7null mice on HFD 5-ASA. The note with it: HFD vs HFD 5-ASA, 12 weeks. It counts as in vivo. As to the method: Mice. Mice were fed either NCD (15 kcal % fat) or HFD (Research Diets, 60 kcal % fat, irradiated) starting at 6 weeks of age. All studies were performed under the approval of Animal User Protocols by the Animal Care Committee at the University Health Network. Mice were maintained in a pathogen-free, temperature-controlled environment on a 12-hour light and dark cycle. All mice used in comparative studies were male, age-matched, and litter mates where possible.
We measured body weights, GTTs, ITTs, serum insulin, and fat cell diameter as previously described (Winer et al., 2009a). All GTTs were performed with a 1.5 g/kg glucose i.p. injection unless indicated otherwise.

Consider `Nc1ccc(O)c(C(=O)O)c1` [5-ASA, 5-aminosalicylic acid], for which, in data set [1], the Clostridiales entry was “increased”, the Firmicutes entry was “increased”, the “abundance of Ruminococcaceae” value is “increased” and the bacterial diversity entry is given as “increased”. In data set [2], the “IgG responses to LPS (serum anti-LPS IgG)” value is reported as “markedly diminished”, the VAT endotoxin levels result was “trended lower” and the serum endotoxin result is recorded as “reduced”. Besides, in data set [3], the body weight entry is recorded as “did not change”, the glucose tolerance entry was “significant improvements” and the insulin tolerance entry is listed as “significant improvements”. In addition, the “IFNγ levels from OT-II CD4+ T cells” value in data set [4] is “reduced”. Moreover, the Kp in data set [5] was around 20. For the same compound, in data set [6], the “Tregs in VAT” value was “increasing”, the “percentages of IFNγ-secreting CD8+ T cells in VAT” value is on record as “reducing”, the “percentages of M1 inflammatory macrophages in VAT” value is on record as “reducing” and the “percentages of Th1 cells in VAT” value is reported as “reducing”. For the same compound, in data set [7], the IR entry is listed as “little or no difference”, the body weight entry is given as “little or no difference”, the fasting glucose result is “little or no difference” and the glucose tolerance entry was “little or no difference”. Besides, in data set [8], the IR result was “no major effects” and the glucose tolerance entry is reported as “no major effects”.
